Reference: ChEMBL document CHEMBL3507680, “University of Dundee, Gates Library screen for HepG2 cell viability”

Assay: Human HepG2 cell viability assay in 384 well format
Assay type: toxicity, cell-based
Parameters: dose 125 nL, time 70.5 hour; concentration not given beside the values
Conditions: HepG2 cells, read-out: Inhibition

Cc1ccc(NC(=O)c2cc(S(=O)(=O)N3CCCCC3)c[nH]2)cc1F
cytotoxicity at 70.5 h: -8.62%

CCOc1ccc(NC(=O)c2cnc(N3CCCC3)nc2C)cc1
cytotoxicity at 70.5 h: -15.6%

COc1ccc(NC(=O)Cn2nc(C)ccc2=O)cc1OC
cytotoxicity at 70.5 h: 0.232%

COCCn1ccc(=O)c(OCC(=O)Nc2ccccc2)c1C
cytotoxicity at 70.5 h: -10.1%

COCCn1ccc(=O)c(OCC(=O)Nc2cccc(C(C)=O)c2)c1C
cytotoxicity at 70.5 h: -4.4%

CC1=Nc2c(c(=O)[nH]n2C(C)C)C(c2ccc(F)c(F)c2)S1 (centres undefined)
cytotoxicity at 70.5 h: -4.57%

CC(C)n1ncc2c1NC(=O)CC21C(=O)Nc2c(Cl)cccc21 (centres undefined)
cytotoxicity at 70.5 h: -5.46%

O=c1cc2c(nn1CN1CCN(c3ccccc3)CC1)CCC2
cytotoxicity at 70.5 h: -4.25%

O=c1cc2c(nn1CN1CCOCC1)CCC2
cytotoxicity at 70.5 h: -3.75%

Cc1cc(C)c2c(c1)C1(CC(=O)Nc3c1cnn3C(C)C)C(=O)N2 (centres undefined)
cytotoxicity at 70.5 h: -5.35%

CC(C)CC1SCC(=O)Nc2c1cnn2C(C)C (centres undefined)
cytotoxicity at 70.5 h: -9.09%

O=C(CCc1nc2cccnc2[nH]1)NCc1cccnc1
cytotoxicity at 70.5 h: 0.275%

CC(C)NC(=O)[C@@H](NC(=O)N1CCN(c2ccc(Cl)cc2)CC1)C(C)C
cytotoxicity at 70.5 h: 6.91%

O=C(NCCCO)C1CC(=O)N(c2n[nH]c3cccc(F)c23)C1 (centres undefined)
cytotoxicity at 70.5 h: 1.35%

COc1cc(C2CC(=O)Oc3cc(C)[nH]c(=O)c32)ccc1OC(F)F (centres undefined)
cytotoxicity at 70.5 h: 10.5%

O=C(NCCN1CCOCC1)c1cc(-c2ccc3c(c2)CCO3)n[nH]1
cytotoxicity at 70.5 h: 2%

CC1(C)OCC(CNC(=O)c2cnn(-c3ccc(Cl)cc3)c2N)O1 (centres undefined)
cytotoxicity at 70.5 h: 7.47%

COc1ccc(-n2ncc(C(=O)NCC3COC(C)(C)O3)c2N)cc1 (centres undefined)
cytotoxicity at 70.5 h: -5.98%

CC(=O)N1N=C(c2ccccc2)OC1C(=O)NCCC1=CCCCC1 (centres undefined)
cytotoxicity at 70.5 h: -0.565%

COCCNC(=O)c1cn(C(C)(C)C)c2ncccc12
cytotoxicity at 70.5 h: -5.71%

COCC(C)NC(=O)c1cn(C(C)(C)C)c2ncccc12 (centres undefined)
cytotoxicity at 70.5 h: -6.59%

COc1ccc(NC(=O)N2CCCC2c2ccco2)cc1OC (centres undefined)
cytotoxicity at 70.5 h: -0.202%

Cc1ccc(C)c(C(NC(=O)C2CC2)c2cccnc2)c1 (centres undefined)
cytotoxicity at 70.5 h: -1.23%

COc1ccc(C2=C(C)C(N3CCc4ccccc43)=NS2(=O)=O)cc1
cytotoxicity at 70.5 h: -12.7%

COc1ccc(C2=C(C)C(N3CCc4ccccc4C3)=NS2(=O)=O)cc1
cytotoxicity at 70.5 h: 48.7%

COC(=O)c1ccccc1NC(=O)c1nc2ccccc2n(C)c1=O
cytotoxicity at 70.5 h: 32.8%

Cc1ccc(C2CCCCCN2Cc2cn(C)nc2C)cc1 (centres undefined)
cytotoxicity at 70.5 h: -12.1%

Cc1ccc(C2CCCCCN2Cc2cn(C)nc2C)s1 (centres undefined)
cytotoxicity at 70.5 h: -19.6%

COc1cccc(CN2CCCCCC2c2cccs2)c1O (centres undefined)
cytotoxicity at 70.5 h: -6.94%

CCOC(=O)CCNC(=O)N1CCN(c2nc3ccccc3n2C)CC1
cytotoxicity at 70.5 h: -9.85%

COc1cc(NC(=O)Cn2ccc3sc(C)cc3c2=O)cc(OC)c1
cytotoxicity at 70.5 h: -22%

CCS(=O)(=O)N1CCCc2ccc(NC(=O)Cc3ccc(F)cc3)cc21
cytotoxicity at 70.5 h: 36.7%

CCc1cnc2c(c1NCc1ccncc1)c(=O)n(C)c(=O)n2C
cytotoxicity at 70.5 h: -8.17%

Cc1cnc2n(c1=O)C(CC(=O)NCc1cc(-c3cccs3)on1)CS2 (centres undefined)
cytotoxicity at 70.5 h: 55.7%

Cc1sc(NC(=O)CN(C)S(C)(=O)=O)c(C#N)c1C
cytotoxicity at 70.5 h: 10%

O=C(CSC1=NS(=O)(=O)c2cc(F)ccc2N1)Nc1cccc(Cl)c1
cytotoxicity at 70.5 h: -2.86%

O=S1(=O)N=C(SCc2ccc(Cl)cc2)Nc2ccc(F)cc21
cytotoxicity at 70.5 h: 7.01%

CNC(=O)CSc1cnn(CC(=O)Nc2cccc(Cl)c2C)c(=O)c1Cl
cytotoxicity at 70.5 h: -16.3%

O=C(CCc1ccccc1)NCC1CCN(Cc2ccsc2)CC1
cytotoxicity at 70.5 h: 5.29%

CCCc1nnsc1C(=O)NCC1CCN(S(C)(=O)=O)CC1
cytotoxicity at 70.5 h: -4%

Cc1ccc(N2CCN(C(=O)COc3ccccc3)CC2)nn1
cytotoxicity at 70.5 h: -1.33%

COc1ccc(F)cc1S(=O)(=O)NCC(c1cccn1C)N(C)C (centres undefined)
cytotoxicity at 70.5 h: -1.76%

Cc1ccnc(OCC(=O)N2CCC(C(N)=O)CC2)n1
cytotoxicity at 70.5 h: -4.44%

COCC(C)(O)CNC(=O)COc1ccccc1OC (centres undefined)
cytotoxicity at 70.5 h: -3.09%

O=C(c1ccc(=O)[nH]n1)N1CC(c2nc(Cc3ccccc3)no2)C1
cytotoxicity at 70.5 h: -0.421%

Cc1ncc(C(=O)N2CCC(C(=O)NC3CCCC3)C2)c(C)n1 (centres undefined)
cytotoxicity at 70.5 h: -6.35%

CC(C)C(=O)N1CCC(c2nc3ccccn3c2NC(C)(C)C)CC1
cytotoxicity at 70.5 h: -10.5%

CC(C)(C)Nc1c(C2CCN(C(=O)C(C)(C)C)CC2)nc2ccccn12
cytotoxicity at 70.5 h: -4.87%

CCCC1c2cccn2CCN1C(=O)Cn1cnc2sc(C)cc2c1=O (centres undefined)
cytotoxicity at 70.5 h: -12.3%

Cc1nc(O)cc([C@@H]2CN(S(=O)(=O)N(C)C)C[C@H]2c2ccccc2F)n1
cytotoxicity at 70.5 h: -8.96%

Cc1nc(O)cc([C@@H]2CN(C(=O)C3CC3)C[C@H]2c2ccccc2F)n1
cytotoxicity at 70.5 h: -2.23%

CCS(=O)(=O)N1C[C@@H](c2cc(O)nc(C)n2)[C@H](c2ccccc2F)C1
cytotoxicity at 70.5 h: 13.7%

CCC1CCCCN1C(=O)Cn1nc(-c2ccc(C)s2)cc(N)c1=O (centres undefined)
cytotoxicity at 70.5 h: -2.23%

O=C(NCCc1cc2nc(-c3ccncc3)ccn2n1)C1CCOCC1
cytotoxicity at 70.5 h: -5.82%

Cc1cc(-c2cc(N)c(=O)n(CC(=O)NC3CCCC3)n2)c(C)o1
cytotoxicity at 70.5 h: -1.96%

Cc1cc(-c2cc(N)c(=O)n(CC(=O)N3CCCC(C)C3)n2)c(C)o1 (centres undefined)
cytotoxicity at 70.5 h: -9.35%

CN1C[C@@H](C(=O)NC2CCCC2)[C@@]2(COc3ccc(F)cc3C2=O)C1
cytotoxicity at 70.5 h: -6.62%

CN1CCN(C(=O)[C@@H]2CN(C)C[C@]23COc2ccc(F)cc2C3=O)CC1
cytotoxicity at 70.5 h: 28.4%

Cn1nccc1C(=O)NCCN1CCC(O)(c2ccc(F)cc2)CC1
cytotoxicity at 70.5 h: 7.28%

O=C(Cn1cc(Cl)cn1)NCCN1CCC(O)(c2ccc(F)cc2)CC1
cytotoxicity at 70.5 h: 5.27%

CN(c1cccnn1)[C@@H]1CC[C@@H]2CN(Cc3ccccc3C(=O)O)C[C@@H]21
cytotoxicity at 70.5 h: -6.92%

CC1(C)O[C@@](C)([C@H]2CC3(CCN(c4cnccn4)CC3)CO2)CC[C@@H]1O
cytotoxicity at 70.5 h: 1.78%

CN(C)Cc1cnc(C2CCN(C(=O)c3ccc(F)cc3)C2)[nH]1 (centres undefined)
cytotoxicity at 70.5 h: -6.91%

CCCC1c2cccn2CCN1S(=O)(=O)N1CCOCC1 (centres undefined)
cytotoxicity at 70.5 h: -4.73%

CC(=O)N1CCOC(CCc2cc(-c3c(C)noc3C)ncn2)C1 (centres undefined)
cytotoxicity at 70.5 h: -0.21%

COc1cc(CCC(=O)N2CCC(c3cnccn3)CC2)on1
cytotoxicity at 70.5 h: -1.25%

CCOCC(=O)N1C[C@@H](O)[C@H](N2CCN(c3ccccc3)CC2)C1
cytotoxicity at 70.5 h: -3.95%

CC(C)C(=O)N(C)Cc1nc(N2CCCC2)ncc1-c1ccncc1
cytotoxicity at 70.5 h: -6.45%

CC(C)(C)Nc1c(C2CCCN(C(=O)C3CC3)C2)nc2ccccn12 (centres undefined)
cytotoxicity at 70.5 h: 17%

Cc1ccc(C2(CN3CCN(Cc4cn(C)nc4C)CC3)CC2)cc1
cytotoxicity at 70.5 h: -11.3%

Cn1cc(CN2CCN(CC3(c4ccccc4)CC3)CC2)cn1
cytotoxicity at 70.5 h: -11.2%

CN1CCCC1c1cc2cccnc2n1Cc1ccc(F)cc1 (centres undefined)
cytotoxicity at 70.5 h: -5.23%

O[C@@H]1CN(Cc2cccc(F)c2)CC[C@H]1NCc1ccccn1
cytotoxicity at 70.5 h: 12.7%

O=C(CN1CCN(CC(O)C2CC2)CC1)NCc1ccc(F)cc1 (centres undefined)
cytotoxicity at 70.5 h: -0.525%

COC(=O)CN1CC(c2nc(Cc3ccccc3)no2)C1
cytotoxicity at 70.5 h: -6.57%

CCC(CN1CCCCC1)NC(=O)C1(c2ccc(F)cc2)CC1 (centres undefined)
cytotoxicity at 70.5 h: -7.64%

Cc1ccc(CN(CCCN(C)C)Cc2cnc(N(C)C)nc2)o1
cytotoxicity at 70.5 h: 6.47%

Cc1ccc(CN(CCCN2CCOCC2)Cc2cnn(C)c2)o1
cytotoxicity at 70.5 h: 0.657%

Cc1noc(C)c1-c1cccc(C2CN(CC(=O)N(C)C)CCO2)n1 (centres undefined)
cytotoxicity at 70.5 h: -4.85%
